Measured values taken from patent US12509423B2, “Compound, aldehyde dehydrogenase 2 activating agent, pharmaceutical composition, and therapeutic and/or prophylactic drug” (Alchemedicine, Inc., priority 2020, dated 2025).

How the values were obtained:
[1] = molecular target: T1, human recombinant ALDH2 enzyme (Homo sapiens, UniProt P05091); assay: ALDH2 activation effect (acetaldehyde oxidation rate, PicoProbe Aldehyde dehydrogenase Activity Assay Kit); type: biochemical
T1 construct: purchased BioVision Inc
T1 sequence (P05091 18-517): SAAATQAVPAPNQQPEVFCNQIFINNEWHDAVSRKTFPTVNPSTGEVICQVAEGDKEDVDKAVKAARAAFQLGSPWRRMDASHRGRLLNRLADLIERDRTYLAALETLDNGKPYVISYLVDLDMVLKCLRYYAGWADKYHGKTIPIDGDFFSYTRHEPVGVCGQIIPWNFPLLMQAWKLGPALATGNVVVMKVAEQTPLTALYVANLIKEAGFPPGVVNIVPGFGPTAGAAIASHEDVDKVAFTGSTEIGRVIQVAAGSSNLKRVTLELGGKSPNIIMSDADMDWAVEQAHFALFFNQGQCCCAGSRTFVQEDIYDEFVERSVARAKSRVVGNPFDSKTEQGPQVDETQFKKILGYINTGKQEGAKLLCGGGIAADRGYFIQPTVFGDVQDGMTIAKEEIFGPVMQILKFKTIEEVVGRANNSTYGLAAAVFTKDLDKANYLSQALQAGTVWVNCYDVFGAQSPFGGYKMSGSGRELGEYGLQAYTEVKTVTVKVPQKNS
Experimental: The activation effect of each test compound on the acetaldehyde oxidation rate of ALDH2 was measured with the following method. A test was conducted by using a commercially available PicoProbe™ Aldehyde dehydrogenase Activity Assay Kit (manufactured by BioVision Inc.) with reference to an instruction attached to the product under the following conditions. To each well of a 384-well plate, the following (1) to (3) were sequentially added with a pipette: • (1) 10 μL of solution obtained by dissolving and diluting a human recombinant ALDH2 enzyme (manufactured by BioVision Inc.) with ALDH assay Buffer to reach 3-μg/mL; • (2) 10 μL of 30 μM or 90 μM test compound solution (with 3% DMSO) prepared by using ALDH assay Buffer; and • (3) 10 μL of Reaction mix composed with ratio of 8.6 μL of ALDH assay Buffer, 0.6 μL of PicoProbe, 0.3 μL of Substrate Mix, and 1.5 μL of Acetaldehyde.
Before addition of (3), incubation was performed at room temperature for 5 minutes. After addition of (3), fluorescence intensity was measured at room temperature every 2.5 minutes over a period of 180 minutes by using an EnSight (manufactured by PerkinElmer Inc.). Wavelengths of 535 nm and 587 nm were used for fluorescence intensities of excitation and -emission, respectively.

[2] = Metabolic stability with mouse hepatic microsomes; type: in vitro ADME
Experimental: Metabolic stability in mouse hepatic microsomes was evaluated with the following method.
• (1) Mouse hepatic microsomes: 20 mg/mL • (2) Test compound: 1.1 mM DMSO solution • (3) Potassium phosphate buffer solution: 66.7 mM (pH 7.4) • (4) NADPH solution: 10 mM in potassium phosphate buffer solution • (5) Quenching solution: 0.5% formic acid-acetonitrile solution with warfarin as internal standard substance 2. Method
Into a propylene tube, 971.5 μL of the potassium phosphate buffer solution and 27.5 μL of the mouse hepatic microsomes were put and suspended. Thereto, 1 μL of a test compound was added, and 180 μL was taken from this mixture and transferred into another tube. The mixture was preincubated at 37° C. for 5 minutes, and 20 μL of the NADPH solution (for the case with an incubation time of 30 minutes) or 20 μL of the potassium phosphate buffer solution (for the case with an incubation time of 0 minutes) was then added thereto. After incubation, 200 μL of the quenching solution was added to terminate the reaction. Subsequently, centrifugation was performed at 3220×g for 20 minutes, and the concentration of the unchanged form of the test compound in 200 μL of the supernatant was measured with LC-MS/MS. On the basis of the peak area obtained for the unchanged form, the residual rate (%) of the unchanged form was calculated as that for the case with an incubation time of 0 minutes was assumed as 100%.

[3] = test system: pain induced by carrageenan (mechanical allodynia); assay: Suppression effect on pain induced by carrageenan (von Frey escape score); type: in vivo, C57BL/6J mice; details: mean ± SE
Experimental: This experiment was carried out with reference to Science Translational Medicine 6, 251ra118 (2014). Animals used were 7-week-old male C57BL/6J mice (Charles River Laboratories Japan, Inc.). To induce mechanical allodynia to a sole part, carrageenan was subcutaneously administered to the sole of the left hind limb of each mouse. The escape response against mechanical stimulation 180 minutes after the induction was measured by using a von Frey filament with bending force (0.16 grams) to the sole surface of the left hind limb in the ascending direction. […] The commercially available statistical program SAS SYSTEM (SAS Software Release 9.1.3; SAS Institute Japan Ltd.) was used for the significance test.

[4] = Metabolic stability with human hepatic microsomes; type: in vitro ADME; details: human hepatic microsomes 0.1 mg protein/mL, 0.1 μmol/L test compound, after 30 minutes, 37° C.
Experimental: The specific method is as follows.
• (1) Fifty microliter-portions were taken from 0.2 μmol/L test compound diluted with β-NADPH solution. • (2) Fifty microliters of 0.2 mg protein/mL human hepatic microsome solution was added to each (except for a sample with a reaction time of 0 minutes). • (3) Incubation was performed with shaking at 37° C. for 30 minutes (concentration in reaction sample: 0.1 μmol/L test compound, 0.1 mg protein/mL human hepatic microsome). • (4) After incubation, 400 μL of methanol was added to terminate the reaction. • (5) To the sample with a reaction time of 0 minutes, 50 μL of 0.2 mg protein/mL hepatic microsome solution was added. • (6) Each of the samples from (4) and (5) was left to stand at −20° C. for 30 minutes or longer, and then centrifuged at 4° C. and 3,000 rpm for approximately 10 minutes. • (7) The supernatant was subjected to measurement with LC/MS/MS, and, based on the peak area obtained for the unchanged form, the residual rate (%) of the unchanged form was calculated as that for the case with an incubation time of 0 minutes was assumed as 100%.

[5] = molecular target: hERG (human Ether-a-go-go Related Gene) channel (Homo sapiens, UniProt Q12809); assay: hERG channel inhibition effect (whole-cell patch clamp); type: cell-based; details: 22 to 25° C.
Experimental: The hERG (human Ether-a-go-go Related Gene) channel inhibition effect of each test compound was examined with the following patch clamp method.
Under a fixed potential, an hERG current that passed through the whole cell membrane was recorded with the whole-cell patch clamp method.
To confirm the hERG current, the holding potential was set to −80 mV, and depolarizing pulses at −50 mV for 110 msec and at 20 mV for 4 sec and a subsequent repolarizing pulse at −50 mV for 2 sec were provided at a frequency of once per 15 seconds. After the stabilization of the hERG tail current obtained was confirmed, an application was initiated. The pulses were continuously provided also during the application.
The sampling frequency was set to 5 kHz, and Lowpass Filter was applied at 2 kHz. […]
hERG currents were measured by using an amplifier for patch clamping (Axopatch 200B, Molecular Devices, LLC), and electric signals obtained were recorded in a computer via recording/analysis software for patch clamping (pCLAMP 10, Molecular Devices, LLC).
The maximum tail current value was determined on the basis of the current value with the depolarizing pulse at −50 mV for 110 msec, and the change rate (suppression rate) 5 minutes after the initiation of application to the maximum tail current value before application of the test compound was calculated.

Sequence of hERG (human Ether-a-go-go Related Gene) channel (Q12809 whole entry): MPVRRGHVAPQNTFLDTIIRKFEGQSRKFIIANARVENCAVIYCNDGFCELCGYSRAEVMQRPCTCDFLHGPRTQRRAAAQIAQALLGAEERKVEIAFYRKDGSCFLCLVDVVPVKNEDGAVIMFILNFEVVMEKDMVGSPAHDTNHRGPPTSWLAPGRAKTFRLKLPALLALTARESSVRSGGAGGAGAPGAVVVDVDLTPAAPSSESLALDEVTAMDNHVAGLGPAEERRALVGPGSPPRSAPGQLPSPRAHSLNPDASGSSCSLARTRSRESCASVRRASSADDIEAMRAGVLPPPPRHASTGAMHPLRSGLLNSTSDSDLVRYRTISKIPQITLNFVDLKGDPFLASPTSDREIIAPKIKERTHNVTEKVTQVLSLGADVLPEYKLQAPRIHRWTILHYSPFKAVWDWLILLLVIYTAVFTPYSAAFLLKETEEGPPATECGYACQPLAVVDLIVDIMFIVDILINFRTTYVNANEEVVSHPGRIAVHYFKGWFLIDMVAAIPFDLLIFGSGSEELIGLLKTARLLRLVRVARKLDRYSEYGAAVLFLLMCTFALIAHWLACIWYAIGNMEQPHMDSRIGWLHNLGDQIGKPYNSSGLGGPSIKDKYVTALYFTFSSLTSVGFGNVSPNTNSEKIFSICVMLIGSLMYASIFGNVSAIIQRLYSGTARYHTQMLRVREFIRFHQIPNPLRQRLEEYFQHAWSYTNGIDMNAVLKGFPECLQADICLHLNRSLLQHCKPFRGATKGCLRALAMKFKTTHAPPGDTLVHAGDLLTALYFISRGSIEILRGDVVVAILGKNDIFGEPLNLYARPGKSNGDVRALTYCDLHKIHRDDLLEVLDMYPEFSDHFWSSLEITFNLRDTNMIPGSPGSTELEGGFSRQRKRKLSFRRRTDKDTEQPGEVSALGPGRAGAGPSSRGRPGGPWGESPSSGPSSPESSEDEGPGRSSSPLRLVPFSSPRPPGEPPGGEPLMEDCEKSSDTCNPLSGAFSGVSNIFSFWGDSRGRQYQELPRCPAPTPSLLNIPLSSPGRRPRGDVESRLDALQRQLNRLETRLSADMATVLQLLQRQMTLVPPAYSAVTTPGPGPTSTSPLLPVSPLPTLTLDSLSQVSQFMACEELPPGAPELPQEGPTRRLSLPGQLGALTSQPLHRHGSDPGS

- acetaldehyde oxidation rate (rate with no test compound assumed as 100%) ([1]; concentration of test compound 10 μM): 196%
- acetaldehyde oxidation rate (rate with no test compound assumed as 100%) ([1]; concentration of test compound 30 μM): 238%
- metabolic stability in mouse hepatic microsomes (in words) [2]: confirmed to have stability
- Residual rate (%) of unchanged form ([2]; mouse hepatic microsomes, after 30 minutes, 37° C., NADPH): 90%
- Residual rate (%) of unchanged form [4]: 90%
SMILES: COCc1ccc(CNC(=O)c2cc(-c3ncccc3CO)ccc2F)cc1F [Example 1, 2-Fluoro-N-(3-fluoro-4-(methoxymethyl)benzyl)-5-(3-(hydroxymethyl)pyridin-2-yl)benzamide]
- Pain-related total score ([3]; 2 mg/kg s.c. three times, 180 min after induction with carrageenan): 10.5 ± 1.6
- Pain-related total score ([3]; 2 mg/kg s.c. three times, Pre (before carrageenan treatment)): 3.0 ± 0.3
- Pain-related total score ([3]; 6 mg/kg s.c. three times, 180 min after induction with carrageenan, significant difference from Vehicle group): 8.3 ± 1.0
- Pain-related total score ([3]; 6 mg/kg s.c. three times, Pre (before carrageenan treatment)): 3.0 ± 0.3
- Pain-related total score ([3]; 20 mg/kg s.c. three times, 180 min after induction with carrageenan): 8.6 ± 1.4
- Pain-related total score ([3]; 20 mg/kg s.c. three times, Pre (before carrageenan treatment)): 3.0 ± 0.3
- IC50 [5]: > 100 µM
